Assay results published in patent US9253984B2, “Herbicidal compositions comprising pyroxasulfone VII” (BASF SE, priority 2008, dated 2016).
Read-outs that look alike come from different tables or passages of the source.

Assays:
[1] = system: Abutilon theophrasti (ABUTH, velvetleaf); assay: greenhouse pre-emergence herbicidal activity; type: in vivo; settings: read-out: observed % activity; for inhibition at 200 g/ha: 200 g ai/ha; for inhibition at 25 g/ha: 25 g ai/ha; for inhibition at 50 g/ha: 50 g ai/ha
Experimental: (§1) The containers were irrigated gently to promote germination and growth and subsequently covered with transparent plastic hoods until plant had rooted.
(§2) In the examples, the solvent used was water. […] In the examples, the solvent used was water.
(§3) Dicamba was used as a commercial aqueous solution having an active ingredient concentration of 480 g/l.
(§4) The test period extended over 21 days.
(§5) The evaluation for the damage caused by the chemical compositions was carried out using a scale from 0 to 100%, compared to the untreated control plants. Here, 0 means no damage and 100 means complete destruction of the plants.
(§6) The value E, which is to be expected if the activity of the individual compounds is just additive, was calculated using the method of S. R. Colby (1967) “Calculating synergistic and antagonistic responses of herbicide combinations”, Weeds 15, p. 22 ff. E=X+Y−(X·Y/100) where X=effect in percent using herbicide A at an application rate a; • Y=effect in percent using herbicide B at an application rate b; • E=expected effect (in %) of A+B at application rates a+b.
(§7) If the value observed in this manner is higher than the value E calculated according to Colby, a synergistic effect is present.

[2] = system: Ambrosia artemisifolia (AMBEL, common ragweed); assay: greenhouse pre-emergence herbicidal activity; type: in vivo; settings: read-out: observed % activity; for inhibition at 200 g/ha: 200 g ai/ha; for inhibition at 50 g/ha: 50 g ai/ha
Experimental: as §1, §2, §3, §4, §5, §6, §7

[3] = system: Helianthus annuus (HELAN, sunflower); assay: greenhouse pre-emergence herbicidal activity; type: in vivo; settings: read-out: observed % activity; for inhibition at 50 g/ha: 50 g ai/ha; for inhibition at 100 g/ha: 100 g ai/ha; for inhibition at 200 g/ha: 200 g ai/ha; for inhibition at 25 g/ha: 25 g ai/ha
Experimental: as §1, §2, §3, §4, §5, §6, §7

[4] = system: Matricaria inermis (MATIN, scentless mayweed); assay: greenhouse pre-emergence herbicidal activity; type: in vivo; settings: read-out: observed % activity; for inhibition at 200 g/ha: 200 g ai/ha; for inhibition at 50 g/ha: 50 g ai/ha
Experimental: as §1, §2, §3, §4, §5, §6, §7

[5] = system: Xanthium strumarium (XANST, cocklebur); assay: greenhouse pre-emergence herbicidal activity; type: in vivo; settings: read-out: observed % activity; for inhibition at 100 g/ha: 100 g ai/ha; for inhibition at 200 g/ha: 200 g ai/ha; for inhibition at 25 g/ha: 25 g ai/ha
Experimental: as §1, §2, §3, §4, §5, §6, §7

[6] = system: Alopecurus myosuroides (ALOMY, blackgrass); assay: greenhouse post-emergence herbicidal activity; type: in vivo; settings: read-out: observed % activity; for inhibition at 50 g/ha: 50 g ai/ha; for inhibition at 13 g/ha: 13 g ai/ha
Description: (§8) For the post-emergence treatment, the test plants were first grown to a height of 3 to 20 cm, depending on the plant habit, and only then treated. Here, the herbicidal compositions were suspended or emulsified in water as distribution medium and sprayed using finely distributing nozzles.
as §2, §3, §4, §5, §6, §7

[7] = system: Echinochloa crus-galli (ECHCG, barnyardgrass); assay: greenhouse post-emergence herbicidal activity; type: in vivo; settings: read-out: observed % activity; for inhibition at 100 g/ha: 100 g ai/ha; for inhibition at 13 g/ha: 13 g ai/ha
Description: as §8, §2, §3, §4, §5, §6, §7

[8] = system: Ipomoea purpurea (PHBPU, tall morningglory); assay: greenhouse post-emergence herbicidal activity; type: in vivo; settings: 20 DAT
Description: as §8, §2, §3, §4, §5, §6, §7

[9] = system: Polygonum convolvulus (POLCO, wild buckwheat); assay: greenhouse post-emergence herbicidal activity; type: in vivo; settings: 20 DAT
Description: as §8, §2, §3, §4, §5, §6, §7

[10] = system: Setaria faberii (SETFA, giant foxtail); assay: greenhouse post-emergence herbicidal activity; type: in vivo; settings: Setaria faberi, read-out: observed % activity; for inhibition at 50 g/ha: 50 g ai/ha; for inhibition at 100 g/ha: 100 g ai/ha
Description: as §8, §2, §3, §4, §5, §6, §7

[11] = system: Setaria lutescens (SETLU, yellow foxtail); assay: greenhouse post-emergence herbicidal activity; type: in vivo; settings: read-out: observed % activity; for inhibition at 50 g/ha: 50 g ai/ha; for inhibition at 13 g/ha: 13 g ai/ha
Description: as §8, §2, §3, §4, §5, §6, §7

[12] = system: harmful plants; settings: known from Y. Yamaji et al., 2006; cited from earlier work

SMILES: COc1c(Cl)ccc(Cl)c1C(=O)O [dicamba]
- inhibition at 200 g/ha ([1]; 192 h, 8 DAT): 40%
- inhibition at 200 g/ha ([1]; 480 h, 20 DAT): 70%
- inhibition at 200 g/ha ([2]; 192 h, 8 DAT): 65%
- inhibition at 200 g/ha ([2]; 480 h, 20 DAT): 95%
- inhibition at 50 g/ha ([3]; 192 h, 8 DAT): 30%
- inhibition at 100 g/ha ([3]; 192 h, 8 DAT): 30%
- inhibition at 200 g/ha ([3]; 192 h, 8 DAT): 75%
- inhibition at 50 g/ha ([3]; 480 h, 20 DAT): 35%
- inhibition at 100 g/ha ([3]; 480 h, 20 DAT): 50%
- inhibition at 200 g/ha ([3]; 480 h, 20 DAT): 85%
- inhibition at 200 g/ha ([4]; 192 h, 8 DAT): 50%
- inhibition at 200 g/ha ([4]; 480 h, 20 DAT): 65%
- inhibition at 100 g/ha ([5]; 192 h, 8 DAT): 50%
- inhibition at 200 g/ha ([5]; 192 h, 8 DAT): 85%
- inhibition at 100 g/ha ([5]; 480 h, 20 DAT): 80%
- inhibition at 200 g/ha ([5]; 480 h, 20 DAT): 95%
- inhibition at 50 g/ha ([6]; 168 h, 7 DAT): 10%
- inhibition at 50 g/ha ([6]; 480 h, 20 DAT): 20%
- inhibition at 100 g/ha ([7]; 168 h, 7 DAT): 20%
- inhibition at 100 g/ha ([7]; 480 h, 20 DAT): 15%
- observed activity in % destruction 20 days after treatment ([8]; 200 g ai/ha): 90%
- observed activity in % destruction 20 days after treatment ([9]; 50 g ai/ha): 80%
- inhibition at 50 g/ha ([10]; 168 h, 7 DAT): 25%
- inhibition at 100 g/ha ([10]; 168 h, 7 DAT): 25%
- inhibition at 50 g/ha ([10]; 480 h, 20 DAT): 0%
- inhibition at 100 g/ha ([10]; 480 h, 20 DAT): 0%
- inhibition at 50 g/ha ([11]; 168 h, 7 DAT): 40%
- inhibition at 50 g/ha ([11]; 480 h, 20 DAT): 10%

SMILES: Cn1nc(C(F)(F)F)c(CS(=O)(=O)C2=NOC(C)(C)C2)c1OC(F)F [pyroxasulfone, 3-[5-(difluoromethoxy)-1-methyl-3-(trifluoromethyl)pyrazol-4-ylmethylsulfonyl]-4,5-dihydro-5,5-dimethyl-1,2-oxazole]
- inhibition at 25 g/ha ([1]; 192 h, 8 DAT): 50%
- inhibition at 50 g/ha ([1]; 192 h, 8 DAT): 50%
- inhibition at 25 g/ha ([1]; 480 h, 20 DAT): 80%
- inhibition at 50 g/ha ([1]; 480 h, 20 DAT): 98%
- inhibition at 50 g/ha ([2]; 192 h, 8 DAT): 50%
- inhibition at 50 g/ha ([2]; 480 h, 20 DAT): 80%
- inhibition at 25 g/ha ([3]; 192 h, 8 DAT): 0%
- inhibition at 50 g/ha ([3]; 192 h, 8 DAT): 0%
- inhibition at 25 g/ha ([3]; 480 h, 20 DAT): 0%
- inhibition at 50 g/ha ([3]; 480 h, 20 DAT): 0%
- inhibition at 50 g/ha ([4]; 192 h, 8 DAT): 20%
- inhibition at 50 g/ha ([4]; 480 h, 20 DAT): 85%
- inhibition at 25 g/ha ([5]; 192 h, 8 DAT): 0%
- inhibition at 25 g/ha ([5]; 480 h, 20 DAT): 0%
- inhibition at 13 g/ha ([6]; 168 h, 7 DAT): 0%
- inhibition at 13 g/ha ([6]; 480 h, 20 DAT): 15%
- inhibition at 13 g/ha ([7]; 168 h, 7 DAT): 25%
- inhibition at 13 g/ha ([7]; 480 h, 20 DAT): 80%
- observed activity in % destruction 20 days after treatment ([8]; 13 g ai/ha): 30%
- observed activity in % destruction 20 days after treatment ([9]; 100 g ai/ha): 55%
- inhibition at 50 g/ha ([10]; 168 h, 7 DAT): 65%
- inhibition at 50 g/ha ([10]; 480 h, 20 DAT): 90%
- inhibition at 13 g/ha ([11]; 168 h, 7 DAT): 0%
- inhibition at 13 g/ha ([11]; 480 h, 20 DAT): 65%
- post-emergence activity [12]: only poor post-emergence activity
